The text below walks through data of paper PMC4697445 (Journal of medicinal chemistry, 2015).

pIC50: −log10 of the molar value. Where two headings read alike, the source gives them in different places. A value given as a limit tells only on which side of the number the result lay.

Data set [1] has as its system PDE10A. The note with it: cited from earlier work.
The conditions of data set [2]: cited from earlier work.
Another data set is described as follows: Biodistribution in rats. The format is in vivo, male Sprague-Dawley rats. The following applies: rat; for blood uptake / bone uptake / brain uptake / fat uptake / kidney uptake / liver uptake / muscle uptake: iv, mean ± SD, n = 4; for in vivo metabolic defluorination (bone activity): 5 to 60 min p.i.
Data set [3] deals with PDE10A (Rattus norvegicus, UniProt Q9QYJ6). The following applies: by 30 min p.i.
The test system of data set [4] is PDE10A. The note with it: for ratios of uptake in the striatum vs nontarget brain regions: by 40 min p.i.; for visualization of striatum in microPET: cynomolgus macaque, summed images 0 to 180 min.
For data set [5] the following is noted: for radioactivity of arterial blood found in the plasma: plasma separated from packed red cells.

By pIC50 is commonly meant the negative decadic logarithm of the IC50, by convention in mol/L. With `Cn1cc(-c2ccncc2)c(-c2ccc(OCc3ccc4ccccc4n3)cc2)n1` [MP-10, 2-[4-(1-methyl-4-pyridin-4-yl-1H-pyrazol-3-yl)-phenoxymethyl]-quinoline], the PDE10A selectivity in the data set on PDE10A [1] is […]. The pIC50 with PDE10A [1] (read-out: PDE10A IC50) is […].

Sequence of PDE10A (Rattus norvegicus, UniProt Q9QYJ6) (Q9QYJ6 whole entry): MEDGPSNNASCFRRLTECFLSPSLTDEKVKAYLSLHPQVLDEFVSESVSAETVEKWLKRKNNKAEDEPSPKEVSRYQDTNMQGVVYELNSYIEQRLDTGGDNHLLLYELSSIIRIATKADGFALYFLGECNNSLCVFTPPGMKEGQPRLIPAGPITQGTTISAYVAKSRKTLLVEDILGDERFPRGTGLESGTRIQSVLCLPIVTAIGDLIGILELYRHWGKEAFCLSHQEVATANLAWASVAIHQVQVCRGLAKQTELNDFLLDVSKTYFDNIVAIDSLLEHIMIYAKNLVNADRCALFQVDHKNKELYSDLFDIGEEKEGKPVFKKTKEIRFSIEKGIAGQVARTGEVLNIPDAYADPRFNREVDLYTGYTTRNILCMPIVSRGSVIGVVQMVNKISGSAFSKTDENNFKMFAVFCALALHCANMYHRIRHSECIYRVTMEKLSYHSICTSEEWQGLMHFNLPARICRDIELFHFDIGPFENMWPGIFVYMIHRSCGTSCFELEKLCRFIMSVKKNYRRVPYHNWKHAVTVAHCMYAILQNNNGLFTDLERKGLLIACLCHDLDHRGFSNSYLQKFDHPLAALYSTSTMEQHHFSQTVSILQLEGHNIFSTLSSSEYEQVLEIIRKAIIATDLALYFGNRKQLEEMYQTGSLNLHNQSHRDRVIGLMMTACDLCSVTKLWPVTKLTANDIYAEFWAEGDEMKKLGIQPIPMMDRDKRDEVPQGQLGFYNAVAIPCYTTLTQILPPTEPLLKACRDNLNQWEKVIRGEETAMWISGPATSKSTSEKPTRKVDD

Regarding `Cn1cc(-c2ccncc2)c(-c2ccc(OCc3ccc4ccccc4n3)cc2)n1` [[^11C]MP-10], the brain uptake is listed as 0.162 ± 0.025 %ID/g in data set [2] (5 min p.i.), 0.066 ± 0.008 %ID/g in data set [2] (30 min p.i.) and […] in data set [2] (60 min p.i.).

On to `Cn1cc(-c2ccncc2)c(-c2ccc(OCc3cc(CCC[18F])c4ccccc4n3)cc2)n1` [[^18F]18c, 4-(3-(Fluoro-^18F)propyl)-2-((4-(1-methyl-4-(pyridin-4-yl)-1H-pyrazol-3-yl)phenoxy)methyl) quinoline], for which, in “Biodistribution in rats” (5 min p.i.), the blood uptake turned out to be 0.459 ± 0.049 %ID/g, the bone uptake is listed as 0.222 ± 0.014 %ID/g, the brain uptake was found to be 0.114 ± 0.015 %ID/g and the fat uptake is 0.220 ± 0.100 %ID/g. In the data set “Biodistribution in rats” (5 min p.i.), this molecule yielded a kidney uptake of 2.471 ± 0.487 %ID/g, a liver uptake of 9.99 ± 1.27 %ID/g and a muscle uptake of 0.223 ± 0.067 %ID/g. In “Biodistribution in rats” (30 min p.i.), this molecule yielded a bone uptake of 1.418 ± 0.182 %ID/g, a brain uptake of 0.046 ± 0.006 %ID/g, a fat uptake of 0.491 ± 0.035 %ID/g and a kidney uptake of 1.364 ± 0.077 %ID/g. In addition, in the data set “Biodistribution in rats” (30 min p.i.), the liver uptake came to 5.67 ± 0.73 %ID/g and the muscle uptake worked out at 0.178 ± 0.016 %ID/g. In “Biodistribution in rats” (60 min p.i.), this molecule displayed a bone uptake of 2.037 ± 0.303 %ID/g, a brain uptake of 0.026 ± 0.005 %ID/g, a fat uptake of 0.368 ± 0.077 %ID/g and a kidney uptake of 1.216 ± 0.180 %ID/g. In the data set “Biodistribution in rats” (60 min p.i.), this molecule had a liver uptake of 6.79 ± 2.49 %ID/g and a muscle uptake of 0.103 ± 0.030 %ID/g. Besides, the “ratio of activity in the striatum versus nontarget brain regions” value (“ratio of activity” below) on PDE10A [3] is on record as greater than 2 fold.

Turning to `Cn1cc(-c2ccncc2)c(-c2ccc(OCc3cc(OCC[18F])c4ccccc4n3)cc2)n1` [[^18F]18d, 4-((2-Fluoro-^18F)ethoxy)-2-((4-(1-methyl-4-(pyridin-4-yl)-1H-pyrazol-3-yl)phenoxy)methyl)quinoline], in the data set with PDE10A [4] (cynomolgus macaque microPET), the “ratios of uptake in the striatum vs nontarget brain regions” value was greater than 3 fold. In addition, the “visualization of striatum in microPET” value with PDE10A [4] is given as “clear visualization of the PDE10A-enriched striatum”. Moreover, in the data set “Biodistribution in rats”, the “in vivo metabolic defluorination (bone activity)” value is recorded as “appeared more stable to in vivo defluorination”. Moreover, in “Biodistribution in rats” (5 min p.i.), the blood uptake turned out to be 0.362 ± 0.048 %ID/g, the bone uptake stood at 0.189 ± 0.004 %ID/g, the brain uptake is given as 0.118 ± 0.012 %ID/g and the fat uptake is given as 0.213 ± 0.007 %ID/g. In the data set “Biodistribution in rats” (5 min p.i.), this molecule had a kidney uptake of 2.200 ± 0.158 %ID/g, a liver uptake of 6.88 ± 1.15 %ID/g and a muscle uptake of 0.247 ± 0.031 %ID/g. In “Biodistribution in rats” (30 min p.i.), the blood uptake is given as 0.226 ± 0.073 %ID/g, the bone uptake was determined as 0.091 ± 0.012 %ID/g, the brain uptake worked out at 0.078 ± 0.009 %ID/g and the fat uptake is on record as 0.302 ± 0.033 %ID/g. In the data set “Biodistribution in rats” (30 min p.i.), this molecule registered a kidney uptake of 1.055 ± 0.218 %ID/g, a liver uptake of 6.98 ± 0.99 %ID/g and a muscle uptake of 0.134 ± 0.019 %ID/g. Further, in “Biodistribution in rats” (60 min p.i.), the blood uptake worked out at 0.215 ± 0.008 %ID/g, the bone uptake stood at 0.142 ± 0.001 %ID/g, the brain uptake is recorded as 0.101 ± 0.002 %ID/g and the fat uptake is recorded as 0.259 ± 0.025 %ID/g. Besides, in “Biodistribution in rats” (60 min p.i.), the kidney uptake is listed as 0.765 ± 0.153 %ID/g, the liver uptake turned out to be 3.29 ± 0.56 %ID/g and the muscle uptake worked out at 0.132 ± 0.011 %ID/g. For the same molecule, the “ratio of activity” value at PDE10A [3] was greater than 2 fold. Moreover, in data set [5] (NHP plasma, 2 min p.i.), the “% peak 1 (radiometabolite, retention time ~3.5 min)” value came out at 1% and the “% peak 2 (radiometabolite, retention time ~7.5 min)” value was 0%. Moreover, in data set [5] (NHP plasma, 15 min p.i.), the “% peak 1 (radiometabolite, retention time ~3.5 min)” value was determined as 4% and the “% peak 2 (radiometabolite, retention time ~7.5 min)” value is 0%. In addition, in data set [5] (NHP plasma, 30 min p.i.), the “% peak 1 (radiometabolite, retention time ~3.5 min)” value came to 7% and the “% peak 2 (radiometabolite, retention time ~7.5 min)” value amounted to 1%. In addition, in data set [5] (NHP plasma, 60 min p.i.), the “% peak 1 (radiometabolite, retention time ~3.5 min)” value turned out to be 19% and the “% peak 2 (radiometabolite, retention time ~7.5 min)” value was 5%. Besides, in data set [5] (NHP plasma, 90 min p.i.), the “% peak 1 (radiometabolite, retention time ~3.5 min)” value is listed as 32% and the “% peak 2 (radiometabolite, retention time ~7.5 min)” value is 9%. The “radioactivity of arterial blood found in the plasma” value in data set [5] is given as 65–75%.

Turning to `Cn1cc(-c2ccncc2)c(-c2ccc(OCc3nc4ccccc4cc3OCC[18F])cc2)n1` [[^18F]20a, 3-((2-Fluoro-^18F)ethoxy)-2-((4-(1-methyl-4-(pyridin-4-yl)-1H-pyrazol-3-yl)phenoxy)methyl)-quinoline], the “ratios of uptake in the striatum vs nontarget brain regions” value with PDE10A [4] (cynomolgus macaque microPET) was greater than 3 fold. For the same molecule, in the data set with PDE10A [4] (cynomolgus macaque microPET, by 70 min p.i.), the “target:nontarget ratios” value is listed as greater than 5 fold. Besides, the “visualization of striatum in microPET” value in the data set on PDE10A [4] was “clear visualization of the PDE10A-enriched striatum”. Besides, in the data set “Biodistribution in rats”, the “in vivo metabolic defluorination (bone activity)” value is “appeared more stable to in vivo defluorination”. In “Biodistribution in rats” (5 min p.i.), this molecule had a blood uptake of 0.343 ± 0.061 %ID/g, a bone uptake of 0.182 ± 0.003 %ID/g, a brain uptake of 0.092 ± 0.011 %ID/g and a fat uptake of 0.119 ± 0.021 %ID/g. In the data set “Biodistribution in rats” (5 min p.i.), this molecule showed a kidney uptake of 1.789 ± 0.332 %ID/g, a liver uptake of 4.24 ± 0.74 %ID/g and a muscle uptake of 0.166 ± 0.017 %ID/g. In “Biodistribution in rats” (30 min p.i.), this molecule had a blood uptake of 0.306 ± 0.016 %ID/g, a bone uptake of 0.144 ± 0.006 %ID/g, a brain uptake of 0.129 ± 0.005 %ID/g and a fat uptake of 0.202 ± 0.023 %ID/g. For the same molecule, in “Biodistribution in rats” (30 min p.i.), the kidney uptake is recorded as 1.022 ± 0.103 %ID/g, the liver uptake came to 3.17 ± 0.55 %ID/g and the muscle uptake was 0.156 ± 0.014 %ID/g. In the data set “Biodistribution in rats” (60 min p.i.), this molecule registered a blood uptake of 0.287 ± 0.010 %ID/g, a bone uptake of 0.224 ± 0.015 %ID/g, a brain uptake of 0.149 ± 0.013 %ID/g and a fat uptake of 0.124 ± 0.011 %ID/g. Besides, in the data set “Biodistribution in rats” (60 min p.i.), the kidney uptake is 0.841 ± 0.087 %ID/g, the liver uptake is 1.80 ± 0.62 %ID/g and the muscle uptake is on record as 0.134 ± 0.009 %ID/g. On PDE10A [3], the “ratio of activity” value was greater than 2 fold. In data set [5] (NHP plasma, 2 min p.i.), the “% peak 1 (radiometabolite, retention time ~3.5 min)” value came to 0% and the “% peak 2 (radiometabolite, retention time ~7.5 min)” value came out at 0%. In data set [5] (NHP plasma, 15 min p.i.), the “% parent” value is greater than 90%; the “% peak 1 (radiometabolite, retention time ~3.5 min)” value amounted to 6%; the “% peak 2 (radiometabolite, retention time ~7.5 min)” value stood at 2%. In data set [5] (NHP plasma, 30 min p.i.), the “% peak 1 (radiometabolite, retention time ~3.5 min)” value is reported as 15% and the “% peak 2 (radiometabolite, retention time ~7.5 min)” value is recorded as 8%. Moreover, in data set [5] (NHP plasma, 60 min p.i.), the “% peak 1 (radiometabolite, retention time ~3.5 min)” value turned out to be 29% and the “% peak 2 (radiometabolite, retention time ~7.5 min)” value was determined as 14%. In data set [5] (NHP plasma, 90 min p.i.), the “% peak 1 (radiometabolite, retention time ~3.5 min)” value was found to be 39% and the “% peak 2 (radiometabolite, retention time ~7.5 min)” value was 14%. The “radioactivity of arterial blood found in the plasma” value in data set [5] is on record as 65–75%.
